Assay results: patent publication US5126506A, “2',3'-Dideoxy-2'-fluoronucleosides” (Bristol-Myers Company, priority 1990, dated 1992)

What was measured:
[1] = compared with ddA; cited from earlier work
HIV [2] = settings: cited from earlier work; for anti-HIV activity: statement in words
HIV [3] = experiment: Inhibition of cytopathic effect (CPE) in HTLV-1 transformed MT-2 cells infected with HIV virus; format: cell-based; settings: MT2, 168 h, anti-HIV in vitro, inhibition of CPE measured seven days after infection, read-out: ID50 (50% inhib. conc.)
Description: The assays were done in HTLV-1 transformed MT-2 cells infected with HIV virus. Inhibition of cytopathic effect CPE) was measured seven days after infection in comparison with control infected cells (Elaine Kinney-Thomas,(Bioch. Pharm., vol.36,pp 311-316, 1987).

Structure (SMILES) | IC50 (HIV [3]) [µM] | also measured
Nc1ncnc2c1ncn2[C@@H]1O[C@H](CO)C[C@H]1F [Compound B, 6-amino-(β'D-2',3'-dideoxy-2'-fluororibofuranosyl)-9-H-purine] |  | toxicity relative to ddA [1]: more toxic than ddA; protection against HIV relative to that seen with ddA (HIV [2]; % of protection seen with ddA): 13%; anti-HIV activity (HIV [2]): active anti-HIV agents
Nc1ccn([C@@H]2O[C@H](CO)C[C@@H]2F)c(=O)n1 [Compound 5, 2',3'-Dideoxy-2'-fluoroarabino-cytidine] | 4 | 
Cc1cn([C@@H]2O[C@H](CO)[C@@H](N=[N+]=[N-])[C@@H]2F)c(=O)[nH]c1=O [Compound 17, 2',3'-Dideoxy-2'-fluoroarabino-3'-azido-thymidine] | > 100 | 
Nc1ccn([C@@H]2O[C@H](CO)C=C2F)c(=O)n1 [Compound 16, 2',3'-Dideoxy-2',3'-dehydro-2'-fluoro-cytidine] | 15 to 48 | 
Cc1cn([C@@H]2O[C@H](CO)C=C2F)c(=O)[nH]c1=O [Compound 11, 2',3'-Dideoxy-2'3'-didehydro-2'-fluoro-thymidine] | 10 to 100 | 
Nc1ncnc2c1ncn2[C@@H]1O[C@H](CO)C[C@@H]1F [Compound C, 6-amino-9-(β-D-2',3'-dideoxy-2'-fluoroarabinofuranosyl)-H-purine] |  | activity and potency against HIV relative to AZT or ddA (HIV [2]; compared with AZT or ddA): about as active and potent as AZT or ddA; anti-HIV activity (HIV [2]): active anti-HIV agents
Cc1cn([C@@H]2O[C@H](CO)C[C@@H]2F)c(=O)[nH]c1=O [Compound 7, 2', 3'-Dideoxy-2'-fluoroarabino-thymidine] | > 100 | 
